Laboratory results: paper PMC8204911 (ACS Pharmacology & Translational Science, 2021)
Residues, ends and D or L forms follow the SMILES beside them. *: point of attachment. Cbz = O=C(OCc1ccccc1)*; CH2F = FC*

Key:
SARS-CoV-2 M^pro = SARS-CoV-2 M^pro (Severe acute respiratory syndrome coronavirus 2, UniProt P0DTD1); settings: at 20 μM, authors' previous screening; cited from earlier work
caspase-3 = target: T1, caspase-3 (Homo sapiens, UniProt P42574); assay type: biochemical; settings: read-out: Caspase-3 IC50
T1 sequence (P42574 29-175 limits assumed): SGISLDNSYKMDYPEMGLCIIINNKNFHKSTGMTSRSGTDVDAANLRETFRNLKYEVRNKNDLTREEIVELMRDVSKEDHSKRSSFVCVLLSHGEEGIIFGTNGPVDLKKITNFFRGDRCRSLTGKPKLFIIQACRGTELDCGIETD
T1 sequence (P42574 176-277 limits assumed): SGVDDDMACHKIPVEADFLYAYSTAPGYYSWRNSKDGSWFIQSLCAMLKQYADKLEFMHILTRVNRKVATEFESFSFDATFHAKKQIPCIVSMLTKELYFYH

Row | SMILES | inhibition of M^pro enzymatic activity (SARS-CoV-2 M^pro) | IC50 (caspase-3)
1 | CCC[C@H](NC(=O)[C@@H]1[C@H]2CCC[C@H]2CN1C(=O)[C@@H](NC(=O)[C@@H](NC(=O)c1cnccn1)C1CCCCC1)C(C)(C)C)C(=O)C(=O)NC1CC1 [telaprevir] | 31% | –
2 | COC(=O)C[C@H](NC(=O)[C@H](C)NC(=O)[C@@H](NC(=O)OCc1ccccc1)C(C)C)C(=O)CF [Z-VAD-FMK] (Cbz-Val-Ala-Asp(OMe)-CH2F) | – | 100 ± 40 nM
